What was measured:
[1] = target: T1, eIF4A1(19-406)-(AG)5-AMPPNP complex (purified recombinant human eIF4A) (Homo sapiens, UniProt P60842); experiment: Thermal shift assay, melting temperature of eIF4A1(19-406)-(AG)5-AMPPNP-rocaglate complexes; assay type: binding; conditions: 5 μM eIF4A, 50 μM (AG)5 RNA, 1 mM AMP-PNP, 100 μM compound; DMSO negative control Tm=48.80
T1 construct: eIF4A1(19-406)=amino acid residues 19-406 of eIF4A1; made in house
Procedure: A thermal shift assay was performed to study the complexing of the synthetic rocaglates with the eIF4A complex. For the thermal shift assay a final protein concentration of 5 μM purified recombinant human eIF4A (purification according to Iwasaki, et al., 2019) was used. In a reaction volume of 20 μL a 10-fold excess of polypurine RNA ((AG)5) (biomers) (final concentration: 50 μM), 1 mM of the ATP analogue AMP-PNP (ROCHE™), 100 μM of the synthetic rocaglate compounds or DMSO as well as 0.3 μL SYPRO® Orange Protein Gel Stain (SIGMA-ALDRICH™) were mixed with the protein. The measurement was performed in a MICROAMP® Fast 96-Well Reaction Plate (0.1 mL, APPLIED BIOSYSTEMS™) using the QUANTSTUDIO3™ Real-Time PCR System (APPLIED BIOSYSTEMS™). The melt curve starting temperature was set to 10° C. in increments of 0.05° C./s ending at 95° C. After measurement, the data was analyzed using the PROTEIN THERMAL SHIFT™ Software (APPLIED BIOSYSTEMS™).

5′-UTR of beta-globin = conditions: HepG2 cells, 5, 10, 50 and 100 nM, 48 h, normalized to Renilla and DMSO control
5′-UTR of (AG)15 = conditions: HepG2 cells, 5, 10, 50 and 100 nM, 48 h, normalized to Renilla and DMSO control
[2] = system: RNA viruses representing different virus families (EBOV, CoV, ZIKV, CHIKV, HEV); conditions: non-cytotoxic concentrations; cited from earlier work

T1 sequence (P60842 19-406, one chain of several): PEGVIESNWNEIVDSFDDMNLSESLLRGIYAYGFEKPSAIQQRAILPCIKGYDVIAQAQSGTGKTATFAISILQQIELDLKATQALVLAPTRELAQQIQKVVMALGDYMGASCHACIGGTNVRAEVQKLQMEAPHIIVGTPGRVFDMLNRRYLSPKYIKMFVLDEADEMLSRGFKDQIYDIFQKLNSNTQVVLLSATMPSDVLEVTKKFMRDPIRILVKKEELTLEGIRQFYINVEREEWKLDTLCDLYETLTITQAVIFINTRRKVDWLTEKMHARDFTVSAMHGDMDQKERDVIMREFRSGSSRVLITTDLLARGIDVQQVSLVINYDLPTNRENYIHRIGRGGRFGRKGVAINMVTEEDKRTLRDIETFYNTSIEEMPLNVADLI

Row | Structure (SMILES) | melting temperature (Tm) of eIF4A1(19-406)-(AG)5-AMPPNP-Rocaglate complex [1] | further results
1 | CONC(=O)[C@H]1[C@@H](O)[C@@]2(O)c3c(OC)cc(OC)cc3O[C@@]2(c2ccc(O)cc2)[C@@H]1c1ccccc1 [Compound 1, (1R,2R,3S,3aR,8bS)-1,8b-dihydroxy-3a-(4-hydroxyphenyl)-N,6,8-trimethoxy-3-phenyl-2,3-dihydro-1Hcyclopenta[b]benzofuran-2-carboxamide] | 51.49 | reporter activity, β-globin 5′-UTR (eIF4A-independent effect) (5′-UTR of beta-globin): nonspecific effects
2 | CONC(=O)[C@H]1[C@@H](O)[C@@]2(O)c3c(OC)cc(O)cc3O[C@@]2(c2ccc(OC)cc2)[C@@H]1c1ccccc1 [Compound 6, (1R,2R,3S,3aR,8bS)-1,6,8b-trihydroxy-N,8-dimethoxy-3a-(4-methoxyphenyl)-3-phenyl-2,3-dihydro-1Hcyclopenta[b]benzofuran-2-carboxamide] | 51.29 | –
3 | CONC(=O)[C@@H]1[C@H](O)[C@]2(O)c3c(OC)cc(O)cc3O[C@]2(c2ccc(OC)cc2)[C@H]1c1ccccc1 [Compound 7, (1S,2S,3R,3aS,8bR)-1,6,8b-trihydroxy-N,8-dimethoxy-3a-(4-methoxyphenyl)-3-phenyl-2,3,3a,8b-tetrahydro-1H-cyclopenta[b]benzofuran-2-carboxamide] | 49.07 | –
4 | COc1cc(OC)c2c(c1)O[C@]1(c3ccc(O)cc3)[C@@H](c3ccccc3)[C@H](C(N)=O)[C@H](O)[C@]21O [Compound 8, (1S,2S,3R,3aS,8bR)-1,8b-dihydroxy-3a-(4-hydroxyphenyl)-6,8-dimethoxy-3-phenyl-2,3-dihydro-1H-cyclopenta[b]benzofuran-2-carboxamide] | 51.07 | –
5 | COc1cc(OC)c2c(c1)O[C@@]1(c3ccc(O)cc3)[C@H](c3ccccc3)[C@@H](C(N)=O)[C@@H](O)[C@@]21O [Compound 9, (1R,2R,3S,3aR,8bS)-1,8b-dihydroxy-3a-(4-hydroxyphenyl)-6,8-dimethoxy-3-phenyl-2,3-dihydro-1H-cyclopenta[b]benzofuran-2-carboxamide] | 55.44 | reporter activity, (AG)15 5′-UTR (eIF4A-dependency) (5′-UTR of (AG)15): only reduced reporter activity with polyAG sequences
6 | COC(=O)[C@H]1[C@@H](O)[C@@]2(O)c3c(OC)cc(O[C@@H]4O[C@@H]([C@H](O)CO)CO[C@H]4OC)cc3O[C@@]2(c2ccc(OC)cc2)[C@@H]1c1ccccc1 [Silvestrol, methyl (1R,2R,3S,3aR,8bS)-6-[[(2S,3R,6R)-6-[(1R)-1,2-dihydroxyethyl]-3-methoxy-1,4-dioxan-2-yl]oxy]-1,8b-dihydroxy-8-methoxy-3a-(4-methoxyphenyl)-3-phenyl-2,3-dihydro-1H-cyclopenta[b][1]benzofuran-2-carboxylate] | – | concentration range of broad-spectrum antiviral activity [2]: low nanomolar range

— patent US20260115213A1 (priority 2021, published 2026)
